Source: BindingDB's records for doi:10.7270/Q2TX3CTT (Broad Institute, 2010)

Target: Glycogen synthase kinase-3 beta (Homo sapiens, UniProt P49841)
Assay: concentration-response blocking of human GSK3B – biochemical, luminescence, cell-free homogeneous, retest, dose response (AID 434954)

Sequence of Glycogen synthase kinase-3 beta (P49841 whole entry): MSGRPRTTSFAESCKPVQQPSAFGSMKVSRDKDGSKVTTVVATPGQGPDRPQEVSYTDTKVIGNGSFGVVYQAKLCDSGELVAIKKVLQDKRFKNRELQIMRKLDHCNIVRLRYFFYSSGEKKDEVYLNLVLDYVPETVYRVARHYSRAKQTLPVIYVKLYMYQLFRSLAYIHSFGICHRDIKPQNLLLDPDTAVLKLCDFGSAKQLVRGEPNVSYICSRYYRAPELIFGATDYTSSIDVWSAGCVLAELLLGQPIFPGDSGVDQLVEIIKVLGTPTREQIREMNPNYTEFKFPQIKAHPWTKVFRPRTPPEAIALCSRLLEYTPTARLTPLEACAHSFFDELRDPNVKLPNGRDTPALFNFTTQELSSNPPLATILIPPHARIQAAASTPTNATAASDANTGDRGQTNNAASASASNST

| Structure (SMILES) | EC50 [µM] |
| --- | --- |
| COc1ccc(Nc2nc(NCC3CCCO3)nc(N)c2[N+](=O)[O-])cc1 (configuration not stated) [N'-(4-Methoxy-phenyl)-5-nitro-N-(tetrahydro-furan-2-ylmethyl)-pyrimidine-2,4,6-triamine] | > 300 |
| Cc1ccc(CSc2ccc3nnc(-c4ccccn4)n3n2)cc1 | > 300 |
| CCNc1nc(N)nc(-c2cc(Cl)ccc2O)n1 [(6E)-6-[6-amino-4-(ethylamino)-1H-1,3,5-triazin-2-ylidene]-4-chloro-1-cyclohexa-2,4-dienone] | 3.56 |
| Clc1nccc(NCc2ccccc2)n1 [N-benzyl-N-(2-chloropyrimidin-4-yl)amine] | > 300 |
| OC(c1ccccc1)c1ccncc1 (configuration not stated) [phenyl(pyridin-4-yl)methanol] | > 300 |
| CCCCC(CC)C(=O)Nc1ncc([N+](=O)[O-])s1 (configuration not stated) [2-ethyl-N-(5-nitro-2-thiazolyl)hexanamide] | 64.2 |
| Cc1ccc(SCC(=O)Nc2ccc3c(c2)C(=O)NC3=O)cc1 [N-[1,3-bis(oxidanylidene)isoindol-5-yl]-2-(4-methylphenyl)sulfanyl-ethanamide] | > 300 |
| COc1ccccc1C=NNC(=O)c1nnn(-c2nonc2N)c1CN(C)c1ccccc1 [1-(4-amino-1,2,5-oxadiazol-3-yl)-N-[(2-methoxyphenyl)methylideneamino]-5-[(N-methylanilino)methyl]triazole-4-carboxamide] | 4.14 |
| COc1cccc2cc(C(=O)OCc3ccccc3)c(=O)oc12 [(phenylmethyl) 8-methoxy-2-oxidanylidene-chromene-3-carboxylate] | > 300 |
| Fc1ccc(CSc2nnc(-c3ccncc3)o2)cc1 | > 300 |
| N#CC(C#N)c1nc2ccccc2nc1-[n+]1cccc([N-]C(=O)c2ccccc2)c1 | > 300 |
| O=C(CN1CCN(Cc2ccccc2Cl)CC1)NN=Cc1ccccn1 | 51.5 |
| COc1cc(/C=N/NC(=O)c2ccc3ccccc3c2)ccc1Oc1ccc([N+](=O)[O-])cn1 [N-[[3-methoxy-4-(5-nitropyridin-2-yl)oxy-phenyl]methylideneamino]naphthalene-2-carboxamide] | > 300 |
| Cc1ccc(-c2nn(-c3ccccc3)cc2C=NNC(=O)c2ccc(Br)o2)cc1 | > 300 |
| FC(F)(F)c1ccc(CSc2nccn2-c2ccccc2)cc1 | > 300 |
| CSc1nc(N)c2c3c(sc2n1)CN(C)CC3 [7-methyl-2-methylsulfanyl-6,8-dihydro-5H-pyrido[4,5]thieno[1,2-c]pyrimidin-4-amine] | 73.2 |

| Structure (SMILES) | EC50 [µM] |
| --- | --- |
| COc1ccc2c(c1)-c1c(ssc1=S)C(C)(C)N2S(=O)(=O)c1ccc(C)cc1 [8-methoxy-4,4-dimethyl-5-(4-methylphenyl)sulfonyl-[1,2]dithiolo[3,4-c]quinoline-1-thione] | > 300 |
| CCCCn1nc(NC(=O)CC(C)C)c2cc3cc(OC)ccc3nc21 [N-(1-butyl-6-methoxy-3-pyrazolo[3,4-b]quinolinyl)-3-methylbutanamide] | > 300 |
| COc1ccc(C(=O)Nc2ccc([N+](=O)[O-])cn2)cc1OC [3,4-dimethoxy-N-(5-nitropyridin-2-yl)benzamide] | > 300 |
| COc1cccc(-n2sc3c(c2=S)-c2cc(OC)ccc2NC3(C)C)c1 | > 300 |
| COCCn1c(SCC(=O)NC(=O)NC(C)C)nc2ccccc21 [2-[1-(2-methoxyethyl)benzimidazol-2-yl]sulfanyl-N-(propan-2-ylcarbamoyl)ethanamide] | > 300 |
| O=Cc1cn(-c2ccccc2)nc1-c1ccc(F)cc1 [3-(4-fluorophenyl)-1-phenyl-1H-pyrazole-4-carbaldehyde] | > 300 |
| CC1CN(c2nc(Nc3ccccc3)nc(N)c2[N+](=O)[O-])CC(C)O1 (configuration not stated) | 35.9 |
| CCC(C)NCCOCCOc1ccc(Cl)cc1Br (configuration not stated) [N-[2-[2-(2-bromo-4-chlorophenoxy)ethoxy]ethyl]-2-butanamine;oxalic acid] | > 300 |
| COc1ccc2nc(NC(=O)CCNC(=O)c3ccccc3Cl)sc2c1 [2-chloro-N-[3-[(6-methoxy-1,3-benzothiazol-2-yl)amino]-3-oxopropyl]benzamide] | > 300 |
| C=CCNc1nc(N)c([N+](=O)[O-])c(Nc2ccccc2OC)n1 [4-N-(2-methoxyphenyl)-5-nitro-2-N-prop-2-enylpyrimidine-2,4,6-triamine] | > 300 |
| O=C(CCc1nnc(CCCCc2ccccc2)o1)NCc1cccc(F)c1 [N-(3-fluorobenzyl)-3-[5-(4-phenylbutyl)-1,3,4-oxadiazol-2-yl]propanamide] | > 300 |
| Nc1nc(Nc2ccccc2)nc(NCCO)c1[N+](=O)[O-] [2-(6-Amino-5-nitro-2-phenylamino-pyrimidin-4-ylamino)-ethanol] | 5.77 |
| CC(N=Nc1nccnc1Cl)c1ccc(Br)cc1 (configuration not stated) [N-[1-(4-bromophenyl)ethylideneamino]-3-chloranyl-pyrazin-2-amine] | > 300 |
| Cn1c(SCC(=O)Nc2ccccc2)nc2ccccc2c1=O [2-(3-Methyl-4-oxo-3,4-dihydro-quinazolin-2-ylsulfanyl)-N-phenyl-acetamide] | > 300 |
| CC(=O)Nc1cccc2c1C(=O)NC2=O [N-(1,3-dioxoisoindol-4-yl)acetamide] | 31.7 |
| Cc1nc(Nc2ccccc2)sc1C(=O)Nc1ccccc1 | > 300 |

Continued, values first:

| EC50 [µM] | Structure (SMILES) |
| --- | --- |
| > 300 | Cc1ccc(Nc2nc(NCCCN3CCOCC3)nc(N)c2[N+](=O)[O-])cc1C [SMR000219808] |
| > 300 | Cc1ccccc1CSc1ccc2nnc(-c3ccccn3)n2n1 [SMR000323599] |
| 23 | O=C1Nc2ccc([N+](=O)[O-])cc2C1=NNC1CS(=O)(=O)CC1O (configuration not stated) [SMR000368316] |
| 74.4 | Cc1ccc(S(=O)(=O)CCSc2n[nH]c(=O)n2-c2ccc3c(c2)OCCO3)cc1 [SMR000456166] |
| 6.85 | O=C(c1ccccc1)c1ccc(NCCCn2ccnc2)c([N+](=O)[O-])c1 [SMR000588423] |
| > 300 | CC1(C)CC(=O)C=C(Nc2ccc(F)cc2)C1 [MLS000070279] |
| > 300 | COc1cc(SC)ccc1C(=O)OCC(=O)NCCNC(=O)COC(=O)c1ccc(SC)cc1OC [MLS001129814] |
| > 300 | COc1ccc(OC)c(C(=O)c2coc3ccc(OCC(=O)O)cc23)c1 [SMR000135205] |
| > 300 | N#Cc1c(N)nc2c(c1N)=C(N)SC1=NC(=O)CC(c3ccccc3)C=21 (configuration not stated) [SMR000147833] |
| > 300 | CN(c1ccccc1C(=O)Nc1cccc(C(F)(F)F)c1)S(C)(=O)=O [MLS000096933] |
| 15.6 | CN(Cc1c(C(=O)NN=Cc2cccc(F)c2)nnn1-c1nonc1N)c1ccccc1 [MLS001141039] |
| > 300 | COc1cc(OC)cc(C(=O)NCC2CCCN(C(=O)c3csc(C)n3)C2)c1 (configuration not stated) [MLS001072180] |
| 27 | O=C(Nc1ccccc1)Nc1ncc([N+](=O)[O-])s1 [MLS001018461] |
| 6.01 | Nc1nc(Nc2cccc(Cl)c2)nc(NCc2ccco2)c1[N+](=O)[O-] [MLS000333252] |
| 49.7 | CNc1nc(N)c([N+](=O)[O-])c(NCC2CCCO2)n1 (configuration not stated) [SMR000436173] |
| > 300 | O=C(Nc1cccc(Cl)c1)Nc1ccnc(-c2cccnc2)n1 [SMR000337179] |
| > 300 | O=C(COc1ccccc1)Nc1ccc2c(c1)C(=O)N(CC1CCCO1)C2=O (configuration not stated) [SMR000291909] |
| 18.4 | Nc1ncc([N+](=O)[O-])c(N2CCCCCC2)n1 [MLS001174873] |
| > 300 | COc1ccccc1NC(=S)NC1CCCCCCCCCCC1 [SMR000460399] |
| > 300 | CNc1nc(N)c(C(=O)C(C)(C)C)s1 [MLS000050680] |
